# Assays:
# Assay type in all cases: functional
# Settings in all cases: read-out: Activity
# UO-31 = experiment: Growth inhibition of human UO-31 cells assessed as cell growth at 10 uM incubated for 48 hrs by sulforhodamine B assay relative to control
# OVCAR-5 = experiment: Growth inhibition of human OVCAR-5 cells assessed as cell growth at 10 uM incubated for 48 hrs by sulforhodamine B assay relative to control
# K562 = experiment: Growth inhibition of human K562 cells assessed as cell growth at 10 uM incubated for 48 hrs by sulforhodamine B assay relative to control
# 786-0 = experiment: Growth inhibition of human 786-0 cells assessed as cell growth at 10 uM incubated for 48 hrs by sulforhodamine B assay relative to control
# BT-549 = experiment: Growth inhibition of human BT-549 cells assessed as cell growth at 10 uM incubated for 48 hrs by sulforhodamine B assay relative to control
# IGROV-1 = experiment: Growth inhibition of human IGROV-1 cells assessed as cell growth at 10 uM incubated for 48 hrs by sulforhodamine B assay relative to control
# SNB-75 = experiment: Growth inhibition of human SNB-75 cells assessed as cell growth at 10 uM incubated for 48 hrs by sulforhodamine B assay relative to control
# SR = experiment: Growth inhibition of human SR cells assessed as cell growth at 10 uM incubated for 48 hrs by sulforhodamine B assay relative to control
# SK-MEL-5 = experiment: Growth inhibition of human SK-MEL-5 cells assessed as cell growth at 10 uM incubated for 48 hrs by sulforhodamine B assay relative to control
# MOLT-4 = experiment: Growth inhibition of human MOLT-4 cells assessed as cell growth at 10 uM incubated for 48 hrs by sulforhodamine B assay relative to control
# NCI-H522 = experiment: Growth inhibition of human NCI-H522 cells assessed as cell growth at 10 uM incubated for 48 hrs by sulforhodamine B assay relative to control
# TK-10 = experiment: Growth inhibition of human TK-10 cells assessed as cell growth at 10 uM incubated for 48 hrs by sulforhodamine B assay relative to control
# UACC-62 = experiment: Growth inhibition of human UACC-62 cells assessed as cell growth at 10 uM incubated for 48 hrs by sulforhodamine B assay relative to control
# CAKI-1 = experiment: Growth inhibition of human CAKI-1 cells assessed as cell growth at 10 uM incubated for 48 hrs by sulforhodamine B assay relative to control
# A549 = experiment: Growth inhibition of human A549/ATCC cells assessed as cell growth at 10 uM incubated for 48 hrs by sulforhodamine B assay relative to control
# PC-3 = experiment: Growth inhibition of human PC-3 cells assessed as cell growth at 10 uM incubated for 48 hrs by sulforhodamine B assay relative to control
# OVCAR-3 = experiment: Growth inhibition of human OVCAR-3 cells assessed as cell growth at 10 uM incubated for 48 hrs by sulforhodamine B assay relative to control
# HCC 2998 = experiment: Growth inhibition of human HCC 2998 cells assessed as cell growth at 10 uM incubated for 48 hrs by sulforhodamine B assay relative to control
# MDA-MB-468 = experiment: Growth inhibition of human MDA-MB-468 cells assessed as cell growth at 10 uM incubated for 48 hrs by sulforhodamine B assay relative to control
# HOP-62 = experiment: Growth inhibition of human HOP-62 cells assessed as cell growth at 10 uM incubated for 48 hrs by sulforhodamine B assay relative to control
# UACC-257 = experiment: Growth inhibition of human UACC-257 cells assessed as cell growth at 10 uM incubated for 48 hrs by sulforhodamine B assay relative to control
# HT-29 = experiment: Growth inhibition of human HT-29 cells assessed as cell growth at 10 uM incubated for 48 hrs by sulforhodamine B assay relative to control
# NCI-H23 = experiment: Growth inhibition of human NCI-H23 cells assessed as cell growth at 10 uM incubated for 48 hrs by sulforhodamine B assay relative to control
# SK-OV-3 = experiment: Growth inhibition of human SK-OV-3 cells assessed as cell growth at 10 uM incubated for 48 hrs by sulforhodamine B assay relative to control
# HCT-116 = experiment: Growth inhibition of human HCT-116 cells assessed as cell growth at 10 uM incubated for 48 hrs by sulforhodamine B assay relative to control
# SN12C = experiment: Growth inhibition of human SN12C cells assessed as cell growth at 10 uM incubated for 48 hrs by sulforhodamine B assay relative to control
# NCI-H460 = experiment: Growth inhibition of human NCI-H460 cells assessed as cell growth at 10 uM incubated for 48 hrs by sulforhodamine B assay relative to control
# LOX IMVI = experiment: Growth inhibition of human LOX IMVI cells assessed as cell growth at 10 uM incubated for 48 hrs by sulforhodamine B assay relative to control
# MDA-MB-435 = experiment: Growth inhibition of human MDA-MB-435 cells assessed as cell growth at 10 uM incubated for 48 hrs by sulforhodamine B assay relative to control
# M14 = experiment: Growth inhibition of human M14 cells assessed as cell growth at 10 uM incubated for 48 hrs by sulforhodamine B assay relative to control
# ACHN = experiment: Growth inhibition of human ACHN cells assessed as cell growth at 10 uM incubated for 48 hrs by sulforhodamine B assay relative to control
# OVCAR-8 = experiment: Growth inhibition of human OVCAR-8 cells assessed as cell growth at 10 uM incubated for 48 hrs by sulforhodamine B assay relative to control
# RPMI-8226 = experiment: Growth inhibition of human RPMI-8226 cells assessed as cell growth at 10 uM incubated for 48 hrs by sulforhodamine B assay relative to control
# RXF 393 = experiment: Growth inhibition of human RXF 393 cells assessed as cell growth at 10 uM incubated for 48 hrs by sulforhodamine B assay relative to control
# SF-268 = experiment: Growth inhibition of human SF-268 cells assessed as cell growth at 10 uM incubated for 48 hrs by sulforhodamine B assay relative to control
# SW-620 = experiment: Growth inhibition of human SW-620 cells assessed as cell growth at 10 uM incubated for 48 hrs by sulforhodamine B assay relative to control
# U-251 = experiment: Growth inhibition of human U-251 cells assessed as cell growth at 10 uM incubated for 48 hrs by sulforhodamine B assay relative to control
# CCRF-CEM = experiment: Growth inhibition of human CCRF-CEM cells assessed as cell growth at 10 uM incubated for 48 hrs by sulforhodamine B assay relative to control
# HCT-15 = experiment: Growth inhibition of human HCT-15 cells assessed as cell growth at 10 uM incubated for 48 hrs by sulforhodamine B assay relative to control
# DU-145 = experiment: Growth inhibition of human DU-145 cells assessed as cell growth at 10 uM incubated for 48 hrs by sulforhodamine B assay relative to control
smiles,measurement,setting,value
CC(=O)Nc1cc(CO)cc(NC(=O)c2ccc(C(=O)Nc3cc(CO)cc(NC(C)=O)c3)cc2)c1,growth at 10 µM,UO-31,97.1%
same,growth at 10 µM,OVCAR-5,106%
same,growth at 10 µM,K562,106%
same,growth at 10 µM,786-0,103%
same,growth at 10 µM,BT-549,99.5%
same,growth at 10 µM,IGROV-1,103%
same,growth at 10 µM,SNB-75,102%
same,growth at 10 µM,SR,106%
same,growth at 10 µM,SK-MEL-5,104%
same,growth at 10 µM,MOLT-4,101%
same,growth at 10 µM,NCI-H522,94.1%
same,growth at 10 µM,TK-10,103%
same,growth at 10 µM,UACC-62,103%
same,growth at 10 µM,CAKI-1,117%
same,growth at 10 µM,A549,108%
same,growth at 10 µM,PC-3,97.9%
same,growth at 10 µM,OVCAR-3,139%
same,growth at 10 µM,HCC 2998,99.6%
same,growth at 10 µM,MDA-MB-468,101%
same,growth at 10 µM,HOP-62,102%
same,growth at 10 µM,UACC-257,106%
same,growth at 10 µM,HT-29,107%
same,growth at 10 µM,NCI-H23,103%
same,growth at 10 µM,SK-OV-3,101%
same,growth at 10 µM,HCT-116,98.6%
same,growth at 10 µM,SN12C,97.4%
same,growth at 10 µM,NCI-H460,107%
same,growth at 10 µM,LOX IMVI,96.8%
same,growth at 10 µM,MDA-MB-435,102%
same,growth at 10 µM,M14,104%
same,growth at 10 µM,ACHN,109%
same,growth at 10 µM,OVCAR-8,107%
same,growth at 10 µM,RPMI-8226,94.5%
same,growth at 10 µM,RXF 393,103%
same,growth at 10 µM,SF-268,115%
same,growth at 10 µM,SW-620,114%
same,growth at 10 µM,U-251,112%
same,growth at 10 µM,CCRF-CEM,87.4%
same,growth at 10 µM,HCT-15,104%
same,growth at 10 µM,DU-145,127%

# — ChEMBL document CHEMBL4715697, “Synthesis and biological activity of benzamide DNA minor groove binders” (2016)
